The record followed here is patent publication US20220370440A1 (Lead Discovery Center GmbH, priority 2018, published 2022).

The test system of one experiment is H1975. Description: H1975 CellTiter-Glo. Type of experiment: cell-based. The settings on record: Homo sapiens, NCI-H1975; 72 h compound incubation; read-out: H1975 CTG IC50. In short, it runs like this: (§1)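 Antiproliferative IC50 values come from a 72 h treatment of cultured cells, measured by CellTiter-Glo ATP luminescence. Only runs with a Z′-factor of at least 0.5, calculated from 16 vehicle and 16 Staurosporine (10 μM) control wells, are reported.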

A further experiment concerns the target EGFR wt (Homo sapiens, UniProt P00533). In words: EGFR wt Lance assay. Type of experiment: biochemical. Here is the method: (§2) Inhibition is indicated as […] [nM] (“−”=not measured). Compounds having an activity designated as “A” provided an IC50≤100 nM; compounds having an activity designated as “B” provided an 100 nM<IC50≤500 nM; compounds having an activity designated as “C” provided an 500 nM<IC50≤1000 nM; compounds having an activity designated as “D” provided an 1000 nM<IC50≤100000 nM; and compounds having an activity designated as “E” provided an IC50>10000 nM.

Experiment [1] deals with EGFR Exon 20 INSNPH Ba/F3 (Homo sapiens, UniProt P00533, DUP771-773, cells depend on it). Description: EGFR Exon 20 INSNPH Ba/F3 CellTiter-Glo. Type of experiment: cell-based. The settings on record: CellTiter-Glo, 72 h, read-out: EGFR Exon 20 INSNPH Ba/F3 CTG IC50. In short, it runs like this:
(§3)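 Using a 72 h viability readout, compound-treated Ba/F3 cells (pre-incubated 24 h after seeding) were lysed with CellTiter-Glo reagent and luminescence recorded. Potency was expressed as IC50 from a fitted dose–response curve.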
A general note: In ATP-based viability assays light output follows the ATP content of the culture.

The target in a further experiment is EGFR T790ML858R (Homo sapiens, UniProt P00533, L858R/T790M). Description: EGFR T790ML858R Lance assay. Type of experiment: biochemical. Here is the method: as §2
EGFR T790ML858R, sequence (P00533 25-1210 T790M/L858R): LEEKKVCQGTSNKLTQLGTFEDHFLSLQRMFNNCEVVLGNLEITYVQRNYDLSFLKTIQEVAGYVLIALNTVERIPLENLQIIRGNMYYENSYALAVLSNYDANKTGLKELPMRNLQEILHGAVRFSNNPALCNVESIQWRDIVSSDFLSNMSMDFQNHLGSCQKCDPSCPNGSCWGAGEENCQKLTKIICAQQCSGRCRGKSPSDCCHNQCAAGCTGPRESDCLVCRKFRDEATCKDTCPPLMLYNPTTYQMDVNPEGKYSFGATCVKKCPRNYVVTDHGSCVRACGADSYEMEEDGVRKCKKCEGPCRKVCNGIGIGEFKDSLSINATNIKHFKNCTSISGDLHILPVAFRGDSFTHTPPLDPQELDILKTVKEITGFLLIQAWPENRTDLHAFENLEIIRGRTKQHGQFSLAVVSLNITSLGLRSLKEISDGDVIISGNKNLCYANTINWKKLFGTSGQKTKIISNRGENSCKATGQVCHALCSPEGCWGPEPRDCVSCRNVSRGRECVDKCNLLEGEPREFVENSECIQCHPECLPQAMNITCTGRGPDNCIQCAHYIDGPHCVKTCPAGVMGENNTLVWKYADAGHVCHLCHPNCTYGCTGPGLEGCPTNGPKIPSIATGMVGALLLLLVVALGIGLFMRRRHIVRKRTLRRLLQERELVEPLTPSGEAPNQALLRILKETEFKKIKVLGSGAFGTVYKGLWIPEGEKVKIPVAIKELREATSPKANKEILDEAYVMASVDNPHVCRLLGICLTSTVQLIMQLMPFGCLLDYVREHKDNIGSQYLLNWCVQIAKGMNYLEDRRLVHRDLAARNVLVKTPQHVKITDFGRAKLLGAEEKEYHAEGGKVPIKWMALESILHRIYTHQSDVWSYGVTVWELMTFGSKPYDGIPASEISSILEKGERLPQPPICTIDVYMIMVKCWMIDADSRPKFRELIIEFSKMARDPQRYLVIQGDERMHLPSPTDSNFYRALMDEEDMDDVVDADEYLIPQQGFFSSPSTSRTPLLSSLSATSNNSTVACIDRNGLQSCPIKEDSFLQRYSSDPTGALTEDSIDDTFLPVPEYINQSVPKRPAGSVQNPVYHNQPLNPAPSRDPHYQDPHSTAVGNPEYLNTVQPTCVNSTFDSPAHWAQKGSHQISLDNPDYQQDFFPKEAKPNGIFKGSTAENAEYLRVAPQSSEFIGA
For a further experiment, the target named is T1, HER2 INS YVMA (Homo sapiens, UniProt P04626, INS775YVMA).
T1 construct: purchased DPF
T1 sequence (P04626 with tags, fused parts or gaps INS775YVMA): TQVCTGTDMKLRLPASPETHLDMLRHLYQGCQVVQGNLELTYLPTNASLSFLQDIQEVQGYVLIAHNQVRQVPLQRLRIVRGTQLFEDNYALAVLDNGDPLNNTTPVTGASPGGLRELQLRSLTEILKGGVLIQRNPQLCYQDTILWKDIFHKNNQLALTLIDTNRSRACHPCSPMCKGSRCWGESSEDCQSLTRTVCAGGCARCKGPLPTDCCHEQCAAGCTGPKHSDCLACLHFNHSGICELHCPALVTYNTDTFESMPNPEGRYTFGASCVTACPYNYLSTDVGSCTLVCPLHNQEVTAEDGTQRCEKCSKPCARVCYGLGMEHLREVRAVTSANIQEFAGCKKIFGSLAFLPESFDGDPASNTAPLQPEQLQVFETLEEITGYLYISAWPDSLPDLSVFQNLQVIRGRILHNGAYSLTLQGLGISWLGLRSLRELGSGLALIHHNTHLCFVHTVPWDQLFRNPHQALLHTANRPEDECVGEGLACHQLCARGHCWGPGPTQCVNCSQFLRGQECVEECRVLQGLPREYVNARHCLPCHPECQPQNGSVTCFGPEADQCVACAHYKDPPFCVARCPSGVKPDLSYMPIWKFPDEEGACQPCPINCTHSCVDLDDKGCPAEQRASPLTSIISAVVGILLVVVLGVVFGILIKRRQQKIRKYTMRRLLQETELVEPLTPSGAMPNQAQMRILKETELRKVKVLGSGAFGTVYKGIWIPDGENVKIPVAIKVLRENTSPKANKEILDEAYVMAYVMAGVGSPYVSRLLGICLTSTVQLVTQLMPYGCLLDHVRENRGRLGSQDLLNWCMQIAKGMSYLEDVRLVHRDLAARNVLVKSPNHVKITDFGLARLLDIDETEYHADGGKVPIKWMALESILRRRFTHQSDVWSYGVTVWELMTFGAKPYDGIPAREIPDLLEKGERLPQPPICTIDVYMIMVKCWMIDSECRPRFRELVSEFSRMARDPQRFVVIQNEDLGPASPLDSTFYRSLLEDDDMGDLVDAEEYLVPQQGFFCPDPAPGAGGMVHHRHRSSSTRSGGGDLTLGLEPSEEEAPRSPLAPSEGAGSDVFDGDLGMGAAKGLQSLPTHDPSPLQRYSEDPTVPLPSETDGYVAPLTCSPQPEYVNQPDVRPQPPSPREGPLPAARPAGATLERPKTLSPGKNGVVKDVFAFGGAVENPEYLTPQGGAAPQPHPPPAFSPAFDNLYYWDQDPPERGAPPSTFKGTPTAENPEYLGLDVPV
In words: Lance Kinase Activity Assay, HER2 INS YVMA (Her2 Exon 20 INSYVMA Lance). Type of experiment: biochemical. The following applies: biochemical Lance assay. In short, it runs like this:
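Kinase phosphorylates a ULight-labelled peptide substrate; Eu anti-phospho antibody gives TR-FRET (ex 340 nm, em 665/615 nm). Compounds in 1:3 serial dilution over 8 steps, reaction started with ATP, 1 h at room temperature, stopped with EDTA-containing detection mix for 1 h. IC50 from sigmoidal dose-response curves.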

The test system of a further experiment is A431. In words: A431 CellTiter-Glo. The class given is cell-based. The following applies: Homo sapiens, A-431; 72 h compound incubation; read-out: A431 CTG IC50. A digest of the protocol:
as §1

For experiment [2], the target named is Her2 Exon 20 INSYVMA Ba/F3 (Homo sapiens, UniProt P04626, DUP772-775, cells depend on it). Description: Her2 Exon 20 INSYVMA Ba/F3 CellTiter-Glo. The class given is cell-based. The following applies: CellTiter-Glo, 72 h, read-out: Her2 Exon 20 INSYVMA Ba/F3 CTG IC50. A digest of the protocol: as §3
Her2 Exon 20 INSYVMA Ba/F3, sequence (P04626 with tags, fused parts or gaps DUP772-775): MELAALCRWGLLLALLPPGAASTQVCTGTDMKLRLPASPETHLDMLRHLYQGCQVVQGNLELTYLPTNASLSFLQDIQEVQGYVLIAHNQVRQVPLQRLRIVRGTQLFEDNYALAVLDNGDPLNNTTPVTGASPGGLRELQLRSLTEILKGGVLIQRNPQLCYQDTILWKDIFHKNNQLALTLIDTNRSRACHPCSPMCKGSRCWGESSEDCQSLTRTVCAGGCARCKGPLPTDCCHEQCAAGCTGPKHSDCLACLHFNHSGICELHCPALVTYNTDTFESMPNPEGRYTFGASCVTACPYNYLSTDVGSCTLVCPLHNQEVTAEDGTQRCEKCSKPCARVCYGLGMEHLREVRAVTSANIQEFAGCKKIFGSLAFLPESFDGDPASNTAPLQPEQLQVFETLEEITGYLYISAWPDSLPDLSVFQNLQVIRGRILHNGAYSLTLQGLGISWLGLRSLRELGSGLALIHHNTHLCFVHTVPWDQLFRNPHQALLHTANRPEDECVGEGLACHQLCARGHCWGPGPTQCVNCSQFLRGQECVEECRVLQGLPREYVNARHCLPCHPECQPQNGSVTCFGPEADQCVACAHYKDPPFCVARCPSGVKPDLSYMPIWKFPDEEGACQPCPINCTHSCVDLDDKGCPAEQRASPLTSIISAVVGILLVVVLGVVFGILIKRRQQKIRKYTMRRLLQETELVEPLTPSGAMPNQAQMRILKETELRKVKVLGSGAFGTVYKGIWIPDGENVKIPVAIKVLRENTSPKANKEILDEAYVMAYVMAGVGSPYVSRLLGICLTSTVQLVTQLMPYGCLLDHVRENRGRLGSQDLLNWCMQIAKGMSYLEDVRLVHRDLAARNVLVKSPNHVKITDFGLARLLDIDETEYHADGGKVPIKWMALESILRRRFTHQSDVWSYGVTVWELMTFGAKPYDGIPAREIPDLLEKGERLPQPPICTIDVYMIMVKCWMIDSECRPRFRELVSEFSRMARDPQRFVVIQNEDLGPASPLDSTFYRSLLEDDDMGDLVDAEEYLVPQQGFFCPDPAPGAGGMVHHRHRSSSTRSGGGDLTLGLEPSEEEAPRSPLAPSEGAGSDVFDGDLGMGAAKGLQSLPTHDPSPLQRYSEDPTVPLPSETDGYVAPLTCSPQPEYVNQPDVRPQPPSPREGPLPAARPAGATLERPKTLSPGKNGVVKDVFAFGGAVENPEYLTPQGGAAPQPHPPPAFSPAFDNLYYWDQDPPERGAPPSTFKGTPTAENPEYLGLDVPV

EGFR wt, sequence (P00533 25-1210): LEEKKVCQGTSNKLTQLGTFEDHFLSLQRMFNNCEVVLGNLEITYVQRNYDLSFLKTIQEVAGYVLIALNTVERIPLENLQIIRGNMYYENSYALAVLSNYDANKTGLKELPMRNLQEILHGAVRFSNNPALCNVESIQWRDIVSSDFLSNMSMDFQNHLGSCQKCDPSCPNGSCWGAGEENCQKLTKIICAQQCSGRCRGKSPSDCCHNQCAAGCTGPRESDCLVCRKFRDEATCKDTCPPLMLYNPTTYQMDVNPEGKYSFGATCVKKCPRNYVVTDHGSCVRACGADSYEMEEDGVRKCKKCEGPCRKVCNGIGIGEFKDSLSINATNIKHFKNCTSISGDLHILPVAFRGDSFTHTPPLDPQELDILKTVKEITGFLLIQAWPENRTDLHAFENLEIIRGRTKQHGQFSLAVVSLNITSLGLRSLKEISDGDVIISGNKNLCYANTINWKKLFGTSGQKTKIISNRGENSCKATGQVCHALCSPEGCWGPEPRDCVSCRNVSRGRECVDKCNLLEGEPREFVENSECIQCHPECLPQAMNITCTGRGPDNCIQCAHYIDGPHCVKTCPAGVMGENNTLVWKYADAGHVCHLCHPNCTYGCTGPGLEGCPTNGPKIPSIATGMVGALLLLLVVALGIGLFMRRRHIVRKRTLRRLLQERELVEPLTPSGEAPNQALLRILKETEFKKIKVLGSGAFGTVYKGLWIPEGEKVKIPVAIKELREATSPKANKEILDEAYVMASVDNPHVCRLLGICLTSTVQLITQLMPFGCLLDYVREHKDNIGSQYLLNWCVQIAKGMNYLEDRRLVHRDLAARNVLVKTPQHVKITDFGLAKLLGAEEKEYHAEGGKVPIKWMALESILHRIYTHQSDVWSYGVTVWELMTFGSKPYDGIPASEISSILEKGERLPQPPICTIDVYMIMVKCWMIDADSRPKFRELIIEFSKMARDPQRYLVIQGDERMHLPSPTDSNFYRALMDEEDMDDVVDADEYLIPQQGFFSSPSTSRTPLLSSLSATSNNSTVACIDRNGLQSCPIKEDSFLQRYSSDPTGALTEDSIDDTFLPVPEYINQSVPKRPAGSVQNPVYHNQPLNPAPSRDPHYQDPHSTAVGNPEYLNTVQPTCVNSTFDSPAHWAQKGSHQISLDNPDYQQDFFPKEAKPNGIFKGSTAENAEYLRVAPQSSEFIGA

What is called IC50 is the concentration that inhibits the measured activity by half. For `C=CC(=O)Nc1cc(-c2c(-c3ccnc(N4CCOCC4)c3)[nH]c3ncc(C(=O)OC(C)C)cc23)ccc1C` [Example 166, isopropyl 3-(3-acrylamido-4-methylphenyl)-2-(2-morpholinopyridin-4-yl)-1H-pyrrolo[2,3-b]pyridine-5-carboxylate], the IC50 in the experiment with H1975 was 1000 to 100000 nM; at EGFR wt it was ≤ 100 nM; at EGFR T790ML858R, 100 to 500 nM; at HER2 INS YVMA, 500 to 1000 nM; in the experiment on A431 it was 1000 to 100000 nM. For the same compound, the GI50 in experiment [1] and in experiment [2] was 1000 to 10000 nM each time.
As to `C=CC(=O)Nc1cc(-c2c(-c3ccc(S(=O)(=O)N4CCN(C)CC4)cc3)[nH]c3ncc(C(=O)OC(C)C)cc23)ccc1C` [Example 167, isopropyl 3-(3-acrylamido-4-methylphenyl)-2-(4-((4-methylpiperazin-1-yl)sulfonyl)phenyl)-1H-pyrrolo[2,3-b]pyridine-5-carboxylate], the IC50 with H1975 was 500 to 1000 nM; on EGFR wt it was ≤ 100 nM; on EGFR T790ML858R it was ≤ 100 nM; at HER2 INS YVMA, 100 to 500 nM; with A431 it was 1000 to 100000 nM. Besides, the GI50 in experiment [1] and in experiment [2] was 500 to 1000 nM throughout.
With `C=CC(=O)Nc1cc(-c2c(-c3ccc(CCO)cc3)[nH]c3ncc(C(=O)OC(C)C)cc23)ccc1C` [Example 168, isopropyl 3-(3-acrylamido-4-methylphenyl)-2-(4-(2-hydroxyethyl)phenyl)-1H-pyrrolo[2,3-b]pyridine-5-carboxylate], the IC50 is 1000 to 100000 nM in the experiment on H1975; ≤ 100 nM at EGFR wt; 100 to 500 nM at EGFR T790ML858R; 100 to 500 nM against HER2 INS YVMA; 1000 to 100000 nM in the experiment with A431. For the same compound, the GI50 in experiment [1] and in experiment [2] was 500 to 1000 nM throughout.
Turning to `C=CC(=O)Nc1cc(-c2c(-c3cnc(N4CCN(C)CC4)s3)[nH]c3ncc(C(=O)OC(C)C)cc23)ccc1C` [Example 169, isopropyl 3-(3-acrylamido-4-methylphenyl)-2-(2-(4-methylpiperazin-1-yl)thiazol-5-yl)-1H-pyrrolo[2,3-b]pyridine-5-carboxylate], the IC50 is 1000 to 100000 nM in the experiment on H1975; ≤ 100 nM at EGFR wt; ≤ 100 nM against EGFR T790ML858R; ≤ 100 nM on HER2 INS YVMA; 1000 to 100000 nM with A431. Also, the GI50 in experiment [1] was 100 to 500 nM; in experiment [2], 500 to 1000 nM.
For `C=CC(=O)Nc1cc(-c2c(-c3ccc(N4CCOCC4)nc3)[nH]c3ncc(C(=O)OC(C)C)cc23)ccc1C` [Example 171, isopropyl 3-(3-acrylamido-4-methylphenyl)-2-(6-morpholinopyridin-3-yl)-1H-pyrrolo[2,3-b]pyridine-5-carboxylate], the IC50 in the experiment with H1975 is 1000 to 100000 nM; against EGFR wt it was ≤ 100 nM; on EGFR T790ML858R it was 500 to 1000 nM; on HER2 INS YVMA, 1000 to 10000 nM; with A431, 1000 to 100000 nM. Moreover, the GI50 in experiment [1] and in experiment [2] was 1000 to 10000 nM each time.
As for `C=CC(=O)Nc1cc(-c2c(-c3cnc(N4CCOCC4)nc3)[nH]c3ncc(C(=O)OC(C)C)cc23)ccc1C` [Example 173, isopropyl 3-(3-acrylamido-4-methylphenyl)-2-(2-morpholinopyrimidin-5-yl)-1H-pyrrolo[2,3-b]pyridine-5-carboxylate], the concentration for half-maximal inhibition (IC50) with H1975 was 1000 to 100000 nM; against EGFR wt it was 500 to 1000 nM; at EGFR T790ML858R, 1000 to 100000 nM; against HER2 INS YVMA it was > 10000 nM; in the experiment on A431, 1000 to 100000 nM. In addition, the GI50 in experiment [1] and in experiment [2] was 1000 to 10000 nM each time.
As to `C=CC(=O)Nc1cc(-c2c(-c3ccc(N4CCN(C)CC4)nc3)[nH]c3ncc(C(=O)OC(C)C)cc23)cc(F)c1C` [Example 174, isopropyl 3-(3-acrylamido-5-fluoro-4-methylphenyl)-2-(6-(4-methylpiperazin-1-yl)pyridin-3-yl)-1H-pyrrolo[2,3-b]pyridine-5-carboxylate], the 50% inhibitory concentration (IC50) in the experiment on H1975 was 500 to 1000 nM; on EGFR wt it was ≤ 100 nM; against EGFR T790ML858R, ≤ 100 nM; against HER2 INS YVMA, ≤ 100 nM; in the experiment on A431 it was 1000 to 100000 nM. Also, the values for the GI50 in experiment [1] and in experiment [2] were 100 to 500 nM and 500 to 1000 nM, respectively.
On to `C=CC(=O)Nc1cc(-c2c(-c3cnc(N4CCN(C)CC4)nc3)[nH]c3ncc(C(=O)OC(C)C)cc23)ccc1C` [Example 175, isopropyl 3-(3-acrylamido-4-methylphenyl)-2-(2-(4-methylpiperazin-1-yl)pyrimidin-5-yl)-1H-pyrrolo[2,3-b]pyridine-5-carboxylate], for which the 50% inhibitory concentration (IC50) in the experiment on H1975 was 1000 to 100000 nM; at EGFR wt it was ≤ 100 nM; against EGFR T790ML858R, 100 to 500 nM; at HER2 INS YVMA it was 100 to 500 nM; in the experiment on A431, 1000 to 100000 nM. In addition, the GI50 in experiment [1] and in experiment [2] was 1000 to 10000 nM each time.
As to `C=CC(=O)Nc1cc(-c2c(-c3ccc(OCCO)cc3)[nH]c3ncc(C(=O)OC(C)C)cc23)ccc1C` [Example 178, isopropyl 3-(3-acrylamido-4-methylphenyl)-2-(4-(2-hydroxyethoxy)phenyl)-1H-pyrrolo[2,3-b]pyridine-5-carboxylate], the IC50 is 1000 to 100000 nM with H1975; ≤ 100 nM at EGFR wt; 100 to 500 nM against EGFR T790ML858R; 100 to 500 nM at HER2 INS YVMA; 1000 to 100000 nM with A431. Also, the GI50 in experiment [1] is 500 to 1000 nM; in experiment [2] it was 1000 to 10000 nM.
`C=CC(=O)Nc1cc(-c2c(-c3ccnc(N4CCN(C)CC4)c3)[nH]c3ncc(C(=O)OC(C)C)cc23)cc(F)c1C` [Example 180, isopropyl 3-(3-acrylamido-5-fluoro-4-methylphenyl)-2-(2-(4-methylpiperazin-1-yl)pyridin-4-yl)-1H-pyrrolo[2,3-b]pyridine-5-carboxylate]: the IC50 with H1975 was 500 to 1000 nM; on EGFR wt, ≤ 100 nM; at EGFR T790ML858R it was ≤ 100 nM; at HER2 INS YVMA, ≤ 100 nM; with A431, 1000 to 100000 nM. The GI50 in experiment [1] and in experiment [2] was 100 to 500 nM in each case.
Turning to `C=CC(=O)Nc1cc(-c2c(-c3cccc(CN4CCN(C)CC4)c3)[nH]c3ncc(C(=O)OC(C)C)cc23)ccc1C` [Example 181, isopropyl 3-(3-acrylamido-4-methylphenyl)-2-(3-((4-methylpiperazin-1-yl)methyl)phenyl)-1H-pyrrolo[2,3-b]pyridine-5-carboxylate], the IC50 was 500 to 1000 nM in the experiment with H1975; ≤ 100 nM on EGFR wt; ≤ 100 nM on EGFR T790ML858R; ≤ 100 nM against HER2 INS YVMA; 1000 to 100000 nM in the experiment with A431. The GI50 in experiment [1] and in experiment [2] was 500 to 1000 nM in each case.
For the compound `C=CC(=O)Nc1cc(-c2c(-c3cccc(OCCCN(C)C)c3)[nH]c3ncc(C(=O)OC(C)C)cc23)ccc1C` [Example 183, isopropyl 3-(3-acrylamido-4-methylphenyl)-2-(3-(3-(dimethylamino)propoxy)phenyl)-1H-pyrrolo[2,3-b]pyridine-5-carboxylate], the half-inhibitory concentration (IC50) with H1975 is 100 to 500 nM; against EGFR wt, ≤ 100 nM; against EGFR T790ML858R it was ≤ 100 nM; at HER2 INS YVMA it was ≤ 100 nM; in the experiment with A431, 1000 to 100000 nM. Besides, the GI50 in experiment [1] and in experiment [2] was 100 to 500 nM each time.
